{"source": "ChEMBL document CHEMBL2311352", "about": "“Discovery of 4-phenyl-2-phenylaminopyridine based TNIK inhibitors” (Bioorg Med Chem Lett, 2013)", "key": {"[1]": {"target": "Serine/threonine-protein kinase PAK 4 (Homo sapiens) (UniProt O96013)", "assay": "Inhibition of PAK4 (unknown origin) at 1 uM"}, "[2]": {"target": "Angiopoietin-1 receptor (Homo sapiens) (UniProt Q02763)", "assay": "Inhibition of TIE2 (unknown origin) at 1 uM"}, "[3]": {"target": "Homeodomain-interacting protein kinase 4 (Homo sapiens) (UniProt Q8NE63)", "sequence (Q8NE63 whole entry)": "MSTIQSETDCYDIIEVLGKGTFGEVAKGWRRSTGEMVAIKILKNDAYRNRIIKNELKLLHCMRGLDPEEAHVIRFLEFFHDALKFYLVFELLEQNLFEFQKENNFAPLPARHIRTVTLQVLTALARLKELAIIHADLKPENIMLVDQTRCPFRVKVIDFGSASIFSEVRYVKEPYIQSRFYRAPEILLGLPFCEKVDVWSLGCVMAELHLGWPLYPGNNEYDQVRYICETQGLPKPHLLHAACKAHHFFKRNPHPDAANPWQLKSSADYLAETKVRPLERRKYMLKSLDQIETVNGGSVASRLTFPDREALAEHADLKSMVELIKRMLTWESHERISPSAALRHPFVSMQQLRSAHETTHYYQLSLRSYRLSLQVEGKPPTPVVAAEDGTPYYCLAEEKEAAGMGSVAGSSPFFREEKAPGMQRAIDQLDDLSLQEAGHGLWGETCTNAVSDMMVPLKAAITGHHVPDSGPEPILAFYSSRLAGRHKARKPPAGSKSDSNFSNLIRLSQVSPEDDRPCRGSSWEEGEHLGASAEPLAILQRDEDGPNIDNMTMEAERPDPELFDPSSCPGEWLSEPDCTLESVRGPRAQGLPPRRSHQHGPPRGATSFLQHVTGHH", "assay": "Inhibition of HIPK4 (unknown origin) at 1 uM"}, "[4]": {"target": "Macrophage colony-stimulating factor 1 receptor (Homo sapiens) (UniProt P07333)", "sequence (P07333 whole entry)": "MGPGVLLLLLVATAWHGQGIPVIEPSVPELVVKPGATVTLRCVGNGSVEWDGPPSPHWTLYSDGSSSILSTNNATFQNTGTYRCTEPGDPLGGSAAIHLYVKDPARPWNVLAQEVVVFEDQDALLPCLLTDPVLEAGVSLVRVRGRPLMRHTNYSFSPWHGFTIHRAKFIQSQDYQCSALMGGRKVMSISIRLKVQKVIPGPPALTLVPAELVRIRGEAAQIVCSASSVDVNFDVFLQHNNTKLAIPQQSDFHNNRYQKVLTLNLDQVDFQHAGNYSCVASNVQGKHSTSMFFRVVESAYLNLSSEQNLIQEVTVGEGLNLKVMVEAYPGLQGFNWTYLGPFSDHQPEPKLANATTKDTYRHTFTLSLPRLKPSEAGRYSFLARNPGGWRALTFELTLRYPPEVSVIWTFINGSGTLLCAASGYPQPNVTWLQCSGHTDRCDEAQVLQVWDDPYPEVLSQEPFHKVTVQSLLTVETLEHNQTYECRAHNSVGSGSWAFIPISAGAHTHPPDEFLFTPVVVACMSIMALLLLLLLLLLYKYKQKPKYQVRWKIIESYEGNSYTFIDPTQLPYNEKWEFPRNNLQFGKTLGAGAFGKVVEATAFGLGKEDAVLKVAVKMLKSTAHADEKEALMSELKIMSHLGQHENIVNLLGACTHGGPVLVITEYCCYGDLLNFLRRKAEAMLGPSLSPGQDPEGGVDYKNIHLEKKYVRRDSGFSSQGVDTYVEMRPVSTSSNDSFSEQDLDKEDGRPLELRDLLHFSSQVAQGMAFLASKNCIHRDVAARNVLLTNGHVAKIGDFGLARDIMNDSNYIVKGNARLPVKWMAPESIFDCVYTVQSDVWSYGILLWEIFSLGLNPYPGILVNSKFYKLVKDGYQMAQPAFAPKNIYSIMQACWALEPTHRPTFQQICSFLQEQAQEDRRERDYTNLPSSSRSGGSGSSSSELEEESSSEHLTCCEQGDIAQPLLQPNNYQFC", "assay": "Inhibition of FMS (unknown origin) at 1 uM"}, "[5]": {"target": "Mast/stem cell growth factor receptor Kit (Homo sapiens) (UniProt P10721)", "assay": "Inhibition of c-KIT (unknown origin) at 1 uM"}, "[6]": {"target": "Insulin-like growth factor 1 receptor (Homo sapiens) (UniProt P08069)", "assay": "Inhibition of IGF1R (unknown origin) at 1 uM"}, "[7]": {"target": "Fibroblast growth factor receptor 1 (Homo sapiens) (UniProt P11362)", "sequence (P11362 22-822 limits assumed)": "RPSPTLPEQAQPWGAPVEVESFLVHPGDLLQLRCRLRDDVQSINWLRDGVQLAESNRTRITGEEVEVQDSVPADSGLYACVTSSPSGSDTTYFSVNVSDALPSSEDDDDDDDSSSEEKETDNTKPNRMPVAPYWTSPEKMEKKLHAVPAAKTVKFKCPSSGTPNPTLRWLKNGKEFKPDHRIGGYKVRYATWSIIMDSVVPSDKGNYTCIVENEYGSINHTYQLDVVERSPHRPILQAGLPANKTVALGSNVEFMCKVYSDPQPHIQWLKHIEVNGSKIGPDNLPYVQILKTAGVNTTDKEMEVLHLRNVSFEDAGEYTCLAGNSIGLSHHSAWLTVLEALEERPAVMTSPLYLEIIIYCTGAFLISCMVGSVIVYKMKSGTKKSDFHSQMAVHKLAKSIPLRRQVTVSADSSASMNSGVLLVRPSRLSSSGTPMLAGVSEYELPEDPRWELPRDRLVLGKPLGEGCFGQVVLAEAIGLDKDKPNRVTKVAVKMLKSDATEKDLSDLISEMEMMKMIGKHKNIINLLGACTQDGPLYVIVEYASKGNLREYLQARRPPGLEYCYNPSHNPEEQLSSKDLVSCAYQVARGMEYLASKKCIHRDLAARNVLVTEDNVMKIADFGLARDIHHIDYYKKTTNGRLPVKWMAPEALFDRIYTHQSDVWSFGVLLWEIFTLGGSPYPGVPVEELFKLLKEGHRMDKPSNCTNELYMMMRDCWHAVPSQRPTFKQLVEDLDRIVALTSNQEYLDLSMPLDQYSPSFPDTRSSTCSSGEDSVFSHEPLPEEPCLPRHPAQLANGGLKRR", "assay": "Inhibition of FGFR1 (unknown origin) at 1 uM"}, "[8]": {"target": "Tyrosine-protein kinase Fgr (Homo sapiens) (UniProt P09769)", "assay": "Inhibition of FGR (unknown origin) at 1 uM"}, "[9]": {"target": "Tyrosine-protein kinase JAK2 (Homo sapiens) (UniProt O60674)", "assay": "Inhibition of JAK2 (unknown origin) at 1 uM"}, "[10]": {"target": "T1, TRAF2 and NCK-interacting protein kinase (Homo sapiens, UniProt Q9UKE5)", "assay": "Ratio of IC50 for TNIK-mediated TCF4/[…] transcription in human HCT116 cells to IC50 for TNIK (unknown origin)", "format": "cell-based", "details": "HCT-116"}, "[11]": {"target": "Serine/threonine-protein kinase Nek1 (Homo sapiens) (UniProt Q96PY6)", "assay": "Inhibition of NEK1 (unknown origin) at 1 uM"}, "[12]": {"target": "Tyrosine-protein kinase Lyn (Homo sapiens) (UniProt P07948)", "assay": "Inhibition of LYN (unknown origin) at 1 uM"}, "[13]": {"target": "T1, TRAF2 and NCK-interacting protein kinase", "assay": "Competitive binding affinity to TNIK (unknown origin) in presence of ATP"}, "[14]": {"target": "NT-3 growth factor receptor (Homo sapiens) (UniProt Q16288)", "assay": "Inhibition of TRKC (unknown origin) at 1 uM"}, "[15]": {"target": "T1, TRAF2 and NCK-interacting protein kinase", "assay": "Inhibition of TNIK (unknown origin) by ADP glo luminescent assay"}, "[16]": {"target": "Tyrosine-protein kinase ABL2 (Homo sapiens) (UniProt P42684)", "assay": "Inhibition of ABL2 (unknown origin) at 1 uM"}, "[17]": {"target": "BDNF/NT-3 growth factors receptor (Homo sapiens) (UniProt Q16620)", "assay": "Inhibition of TRKB (unknown origin) at 1 uM"}, "[18]": {"target": "Aurora kinase A (Homo sapiens) (UniProt O14965)", "assay": "Inhibition of aurora A (unknown origin) at 1 uM"}, "[19]": {"target": "Inhibitor of nuclear factor kappa-B kinase subunit epsilon (Homo sapiens) (UniProt Q14164)", "assay": "Inhibition of IKKepsilon (unknown origin) at 1 uM"}, "[20]": {"target": "Receptor-type tyrosine-protein kinase FLT3 (Homo sapiens) (UniProt P36888)", "assay": "Inhibition of FLT3 (unknown origin) at 1 uM"}, "[21]": {"target": "Tyrosine-protein kinase Fyn (Homo sapiens) (UniProt P06241)", "assay": "Inhibition of FYN (unknown origin) at 1 uM"}, "[22]": {"target": "Death-associated protein kinase 1 (Homo sapiens) (UniProt P53355)", "assay": "Inhibition of DAPK1 (unknown origin) at 1 uM"}, "[23]": {"target": "Fibroblast growth factor receptor 3 (Homo sapiens) (UniProt P22607)", "assay": "Inhibition of FGFR3 (unknown origin) at 1 uM"}, "[24]": {"assay": "Apparent permeability across basolateral to apical side in human Caco2 cells", "format": "ADME, cell-based", "details": "Caco-2"}, "[25]": {"target": "Tyrosine-protein kinase JAK3 (Homo sapiens) (UniProt P52333)", "sequence (P52333 whole entry)": "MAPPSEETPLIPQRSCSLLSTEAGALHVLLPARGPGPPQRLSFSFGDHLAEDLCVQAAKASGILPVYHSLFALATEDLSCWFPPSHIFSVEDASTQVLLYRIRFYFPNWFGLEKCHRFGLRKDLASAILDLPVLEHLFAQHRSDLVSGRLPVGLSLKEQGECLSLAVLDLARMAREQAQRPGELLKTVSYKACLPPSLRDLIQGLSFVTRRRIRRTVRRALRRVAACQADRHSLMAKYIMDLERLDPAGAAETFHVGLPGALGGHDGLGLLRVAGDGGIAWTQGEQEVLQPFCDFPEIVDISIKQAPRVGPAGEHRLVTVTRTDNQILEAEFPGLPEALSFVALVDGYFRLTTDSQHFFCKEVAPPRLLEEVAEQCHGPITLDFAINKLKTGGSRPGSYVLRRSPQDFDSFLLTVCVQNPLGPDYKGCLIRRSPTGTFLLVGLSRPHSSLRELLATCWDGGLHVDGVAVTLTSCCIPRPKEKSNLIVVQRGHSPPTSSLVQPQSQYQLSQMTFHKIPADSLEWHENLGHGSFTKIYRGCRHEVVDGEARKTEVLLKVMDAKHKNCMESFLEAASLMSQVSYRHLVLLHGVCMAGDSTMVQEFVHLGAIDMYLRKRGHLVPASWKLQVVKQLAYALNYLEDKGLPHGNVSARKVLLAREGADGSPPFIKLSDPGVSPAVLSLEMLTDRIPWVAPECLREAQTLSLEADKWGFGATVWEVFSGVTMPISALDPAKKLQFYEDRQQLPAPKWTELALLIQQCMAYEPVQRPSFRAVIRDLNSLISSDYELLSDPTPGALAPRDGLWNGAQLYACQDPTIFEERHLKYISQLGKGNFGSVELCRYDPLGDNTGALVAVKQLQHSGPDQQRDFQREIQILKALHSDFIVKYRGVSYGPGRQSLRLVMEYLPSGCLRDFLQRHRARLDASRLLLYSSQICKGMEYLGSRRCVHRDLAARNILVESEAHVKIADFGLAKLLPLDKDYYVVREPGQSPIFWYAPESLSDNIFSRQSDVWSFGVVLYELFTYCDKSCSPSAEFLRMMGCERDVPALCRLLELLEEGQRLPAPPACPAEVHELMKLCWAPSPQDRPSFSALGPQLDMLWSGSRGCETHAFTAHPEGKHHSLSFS", "assay": "Inhibition of JAK3 (unknown origin) at 1 uM"}, "[26]": {"target": "Protein kinase C epsilon (Homo sapiens) (UniProt Q02156)", "sequence (Q02156 whole entry, looked up)": "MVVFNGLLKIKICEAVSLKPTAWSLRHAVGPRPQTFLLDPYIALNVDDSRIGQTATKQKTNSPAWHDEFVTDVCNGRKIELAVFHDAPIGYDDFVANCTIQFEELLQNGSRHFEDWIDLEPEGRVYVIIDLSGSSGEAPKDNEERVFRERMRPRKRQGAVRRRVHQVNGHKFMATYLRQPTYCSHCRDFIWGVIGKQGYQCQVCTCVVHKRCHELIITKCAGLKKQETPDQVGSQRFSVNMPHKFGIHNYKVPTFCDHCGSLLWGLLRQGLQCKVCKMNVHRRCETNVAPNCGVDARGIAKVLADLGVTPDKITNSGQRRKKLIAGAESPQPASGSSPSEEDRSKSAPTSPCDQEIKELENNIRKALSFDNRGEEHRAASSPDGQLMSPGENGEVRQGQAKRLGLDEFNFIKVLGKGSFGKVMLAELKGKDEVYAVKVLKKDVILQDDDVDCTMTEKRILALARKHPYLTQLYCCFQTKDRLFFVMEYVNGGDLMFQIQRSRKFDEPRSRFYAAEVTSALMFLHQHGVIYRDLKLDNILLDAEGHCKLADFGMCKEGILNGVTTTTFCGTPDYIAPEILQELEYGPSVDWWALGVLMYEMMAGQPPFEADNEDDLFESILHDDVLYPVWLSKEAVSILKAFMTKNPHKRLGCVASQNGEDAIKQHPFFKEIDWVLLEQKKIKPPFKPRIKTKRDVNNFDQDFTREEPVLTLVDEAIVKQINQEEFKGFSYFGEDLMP", "assay": "Inhibition of PKCepsilon (unknown origin) at 1 uM"}, "[27]": {"target": "Serine/threonine-protein kinase Chk1 (Homo sapiens) (UniProt O14757)", "assay": "Inhibition of CHK1 (unknown origin) at 1 uM"}, "[28]": {"target": "Protein-tyrosine kinase 6 (Homo sapiens) (UniProt Q13882)", "sequence (Q13882 whole entry, looked up)": "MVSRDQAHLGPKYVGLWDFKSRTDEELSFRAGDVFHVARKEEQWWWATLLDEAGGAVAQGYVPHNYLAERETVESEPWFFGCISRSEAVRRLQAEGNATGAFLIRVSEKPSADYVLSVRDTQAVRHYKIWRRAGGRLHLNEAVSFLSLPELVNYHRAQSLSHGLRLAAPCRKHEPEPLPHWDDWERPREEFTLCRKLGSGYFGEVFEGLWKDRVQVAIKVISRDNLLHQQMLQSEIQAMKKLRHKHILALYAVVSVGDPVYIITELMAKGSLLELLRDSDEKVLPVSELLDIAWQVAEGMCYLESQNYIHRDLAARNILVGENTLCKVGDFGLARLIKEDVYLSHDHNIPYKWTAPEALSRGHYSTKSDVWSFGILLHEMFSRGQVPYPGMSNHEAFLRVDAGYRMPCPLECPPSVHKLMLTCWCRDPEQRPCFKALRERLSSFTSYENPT", "assay": "Inhibition of BRK (unknown origin) at 1 uM"}, "[29]": {"target": "High affinity nerve growth factor receptor (Homo sapiens) (UniProt P04629)", "assay": "Inhibition of TRKA (unknown origin) at 1 uM"}}, "data": [{"compound": "COc1cc(Nc2ncc(Cl)c(-c3cccc(CC#N)c3)n2)ccc1N1CCN(C)CC1", "values": [{"measurement": "inhibition", "setting": "[1]", "result": 50, "unit": "%"}, {"measurement": "inhibition", "setting": "[2]", "result": 50, "unit": "%"}, {"measurement": "inhibition", "setting": "[3]", "result": "> 80", "unit": "%"}, {"measurement": "inhibition", "setting": "[4]", "result": "> 80", "unit": "%"}, {"measurement": "inhibition", "setting": "[5]", "result": "> 80", "unit": "%"}, {"measurement": "inhibition", "setting": "[6]", "result": "> 80", "unit": "%"}, {"measurement": "inhibition", "setting": "[7]", "result": "> 95", "unit": "%"}, {"measurement": "inhibition", "setting": "[8]", "result": 50, "unit": "%"}, {"measurement": "inhibition", "setting": "[9]", "result": "> 95", "unit": "%"}, {"measurement": "Ratio IC50", "setting": "[10]", "result": 5.4}, {"measurement": "inhibition", "setting": "[11]", "result": "> 80", "unit": "%"}, {"measurement": "inhibition", "setting": "[12]", "result": "> 80", "unit": "%"}, {"measurement": "Kd", "setting": "[13]", "result": 86, "unit": "nM"}, {"measurement": "inhibition", "setting": "[14]", "result": "> 95", "unit": "%"}, {"measurement": "IC50", "setting": "[15]", "result": 65, "unit": "nM"}, {"measurement": "inhibition", "setting": "[16]", "result": "> 80", "unit": "%"}, {"measurement": "inhibition", "setting": "[17]", "result": "> 80", "unit": "%"}, {"measurement": "inhibition", "setting": "[18]", "result": "> 95", "unit": "%"}, {"measurement": "inhibition", "setting": "[19]", "result": "> 95", "unit": "%"}, {"measurement": "inhibition", "setting": "[20]", "result": "> 95", "unit": "%"}, {"measurement": "inhibition", "setting": "[21]", "result": 50, "unit": "%"}, {"measurement": "inhibition", "setting": "[22]", "result": "> 80", "unit": "%"}, {"measurement": "inhibition", "setting": "[23]", "result": "> 95", "unit": "%"}, {"measurement": "Papp B→A", "setting": "[24]", "result": 7.7, "unit": "×10⁻⁶ cm/s"}, {"measurement": "inhibition", "setting": "[25]", "result": "> 95", "unit": "%"}, {"measurement": "inhibition", "setting": "[26]", "result": 50, "unit": "%"}, {"measurement": "inhibition", "setting": "[27]", "result": "> 80", "unit": "%"}, {"measurement": "inhibition", "setting": "[28]", "result": "> 80", "unit": "%"}, {"measurement": "inhibition", "setting": "[29]", "result": "> 80", "unit": "%"}]}]}
